Test [1] in a line: Mouse Hot Plate Assay (analgesia). The test is classed as in vivo, mice. Particulars: for ED50: dose producing analgesia in 50% of animals, hot plate 48° C., parentheses = 95% fiducial limits; for ED50 / Duration of Action: intrathecal; for Duration of Action: duration of the analgesic effect; for Onset of Action: time to peak analgesic activity following intrathecal injection. The protocol: Analgesic Utility: The Mouse Hot Plate Assay was used to determine the activity of compounds of the invention as analgesics. The compound vehicles were as described above in the Scratching Assay.
Mouse Hot Plate Assay: The hot plate assay was used to assess analgesic potency, see Vaught and Chipkin, Eur. Journal. Pharmacol. 79, 167-173 (1982) and references therein. In these experiments the hot plate apparatus (Technilab Instruments, Inc.) was maintained at 48±0.05° C. The response measure was the time interval between the animal being placed on the heated surface and licking or shaking its hindpaw. Test drug was administered intrathecally and at appropriate times following drug administration the reaction times redetermined. A reaction time for drug-treated animals greater than three standard deviations from the mean of the control reaction times for all the animals in the group was the criterion for an analgesic response. At least three doses with 10 animals per dose were used to construct dose response curves.
In general terms: In hot-plate and tail-flick tests a longer latency is read as antinociception.

Test [2] has as its system Neurokinin B-induced scratching. Briefly: Tachykinin-induced mouse scratching assay: antagonism of Neurokinin B-induced scratching. In kind it is in vivo, Male, Swiss CD-1 mice. Details: unit not given beside the values. As to conditions: dose of antagonist inhibiting NK-induced scratching by 50%; intrathecal, injected simultaneously with SD90 dose of NK; parentheses = 95% fiducial limits. An excerpt: The tachykinin-induced mouse scratching assay was used to evaluate the ability of the Neurokinin B analogs of the invention to act in vivo as antagonists.
Male, Swiss CD-1 mice (Charles River, Kingston, NY) weighing between 18-24 g were used in all experiments. They were allowed food and water ad libitum and each animal was used only once.
Following the intrathecal injection of agonist, the animals were placed into individual plexiglass observation chambers and observed for five min for the occurrence of the characteristic reciprocal hind-limb scratching response (caudallyn directed scratching of the body interchangeably by the hind limbs). Animals were scored as either responders or non-responders. In order to assess the ability and specificity of the Neurokinin B analogs to block the scratching produced by substance P, Neurokinin B and bombesin, varying doses of the antagonists were injected simultaneously with that dose of agonist causing 90% of the animals to scratch. […] In some instances, the percent inhibitions of scratching for a given dose of agonist was compared to control values by the Fishers Exact Test.

For test [3], the system named is substance P-induced scratching. In kind it is in vivo, Male, Swiss CD-1 mice. Details: ID50 vs SP: unit not given beside the values. As to conditions: for ID50 vs SP: dose of antagonist inhibiting SP-induced scratching by 50%, intrathecal, injected simultaneously with SD90 dose of SP, parentheses = 95% fiducial limits; for % inhibition of SP-induced scratching: mouse, in vivo. The text has this:
(§1) The tachykinin-induced mouse scratching assay was used to evaluate the ability of the Neurokinin B analogs of the invention to act in vivo as antagonists. This test was chosen since scratching is well documented to be a reproducible, characteristic central effect of tachykinin agonists which can be blocked by tachykinin antagonists, see Hylden and Wilcox, Brain Res. 217: 212 (1981); Piercey et al., Science 214: 1361, (1981); Vaught et al., Eur. Journal Pharmacol. 103: 355, (1984).
(§2) Male, Swiss CD-1 mice (Charles River, Kingston, NY) weighing between 18-24 g were used in all experiments. They were allowed food and water ad libitum and each animal was used only once. Substance P, Neurokinin B, bombesin (a compound which induces scratching but is not a tachykinin), [D-Pro^2,D-Trp^7,9 ]-Substance P(1-11) and the product of Example 1 were dissolved in 0.01N acetic acid. The products of Examples 2, 3 and 4 were dissolved in 0.1N NaOH; DMSO and H2 O (1:1:4.7 v/v). These vehicles, injected intrathecally to mice, produced no overt behavioral effects.
To determine the activity of substance P, Neurokinin B and bombesin, these agonists were injected intrathecally (max. volume […]) according to the method of Hylden et al. described in Eur. Journal Pharmacol. 67: 313 (1980). Following the intrathecal injection of agonist, the animals were placed into individual plexiglass observation chambers and observed for five min for the occurrence of the characteristic reciprocal hind-limb scratching response (caudallyn directed scratching of the body interchangeably by the hind limbs). Animals were scored as either responders or non-responders. In order to assess the ability and specificity of the Neurokinin B analogs to block the scratching produced by substance P, Neurokinin B and bombesin, varying doses of the antagonists were injected simultaneously with that dose of agonist causing 90% of the animals to scratch. The ID50 (that dose of antagonist which inhibits scratching produced by an agonist by 50%) was then calculated by probit analysis. In some instances, the percent inhibitions of scratching for a given dose of agonist was compared to control values by the Fishers Exact Test. The following results were obtained in the Scratching Assay: […]

Test [4] relates to bombesin-induced scratching. In kind it is in vivo, Male, Swiss CD-1 mice. Particulars: % inhibition of scratching at 20 μg antagonist, intrathecal.
Description: as §1, §2
To determine the activity of substance P, Neurokinin B and bombesin, these agonists were injected intrathecally (max. volume […]) according to the method of Hylden et al. described in Eur. Journal Pharmacol. 67: 313 (1980). […] Animals were scored as either responders or non-responders. […]

Where a SMILES comes first, the peptide text is derived from it. [ ]: non-standard residue; d: D form. Nle = CCCC[C@H](N)C(=O)O Where only a bound is given, the exact number is not on record here.

The values that follow come from patent US4665157A, “Peptide antagonists of neurokinin B” (priority 1985, dated 1987).

For `CCCC[C@H](NC(=O)[C@H](CC(C)C)NC(=O)[C@@H](Cc1c[nH]c2ccccc12)NC(=O)[C@@H](NC(=O)[C@@H](Cc1c[nH]c2ccccc12)NC(=O)[C@H](Cc1ccccc1)NC(=O)[C@H](CC(=O)O)NC(=O)[C@H](Cc1c[nH]cn1)NC(=O)[C@H]1CCCN1C(=O)[C@@H](N)CC(=O)O)C(C)C)C(N)=O` [Example 1, Asp^1 -D-Pro^2 -His^3 -Asp^4 -Phe^5 -D-Trp^6 -Val^7 -D-Trp^8 -Leu^9 -Nle^10 -NH2] (H-D[dP]HDF[dW]V[dW]L[Nle]-NH2), in test [1], the ED50 is reported as 4.6(3.0-6.4) μg, the “Duration of Action” value is reported as not below 90 min and the “Onset of Action” value is recorded as 20 min. Besides, in test [2], the “ID50 vs. NK” value was 0.6(0.3-1.2). Also, the “ID50 vs SP” value in test [3] is listed as 3.4(2.3-5.2).

As for `CCCC[C@H](NC(=O)[C@H](CC(C)C)NC(=O)[C@@H](Cc1c[nH]c2ccccc12)NC(=O)[C@@H](NC(=O)[C@@H](Cc1c[nH]c2ccccc12)NC(=O)[C@H](Cc1ccccc1)NC(=O)[C@H](CC(=O)O)NC(=O)[C@H](Cc1c[nH]cn1)NC(=O)[C@H]1CCCN1C(=O)[C@H](N)CC(=O)O)C(C)C)C(N)=O` [Example 2, D-Asp^1 -D-Pro^2 -His^3 -Asp^4 -Phe^5 -D-Trp^6 -Val^7 -D-Trp^8 -Leu^9 -Nle^10 -NH2] (H-[dD][dP]HDF[dW]V[dW]L[Nle]-NH2), in test [1], the ED50 was 7.5(5.9-9.5) μg, the “Duration of Action” value worked out at 120 min and the “Onset of Action” value was 20 min. The “% inhibition of SP-induced scratching” value in test [3] came out at 90%.

As to `CCCC[C@H](NC(=O)[C@H](CC(C)C)NC(=O)[C@@H](Cc1c[nH]c2ccccc12)NC(=O)[C@@H](NC(=O)[C@@H](Cc1c[nH]c2ccccc12)NC(=O)[C@H](Cc1ccccc1)NC(=O)[C@@H](CC(=O)O)NC(=O)[C@H](Cc1c[nH]cn1)NC(=O)[C@H]1CCCN1C(=O)[C@H](N)CC(=O)O)C(C)C)C(N)=O` [Example 3, D-Asp^1 -D-Pro^2 -His^3 -D-Asp^4 -Phe^5 -D-Trp^6 -Val^7 -D-Trp^8 -Leu^9 -Nle^10 -NH2] (H-[dD][dP]H[dD]F[dW]V[dW]L[Nle]-NH2), in test [1], the ED50 is on record as 10.4(7.7-13.2) μg, the “Duration of Action” value was not above 90 min and the “Onset of Action” value amounted to 20 min. Moreover, the “% inhibition of SP-induced scratching” value in test [3] is listed as 70%.

As to `CCCC[C@H](NC(=O)[C@H](CC(C)C)NC(=O)[C@@H](Cc1c[nH]c2ccccc12)NC(=O)[C@@H](NC(=O)[C@@H](Cc1c[nH]c2ccccc12)NC(=O)[C@H](Cc1ccccc1)NC(=O)[C@@H](CC(=O)O)NC(=O)[C@H](Cc1c[nH]cn1)NC(=O)[C@H]1CCCN1C(=O)[C@@H](N)CC(=O)O)C(C)C)C(N)=O` [Example 4, Asp^1 -D-Pro^2 -His^3 -D-Asp^4 -Phe^5 -D-Trp^6 -Val^7 -D-Trp^8 -Leu^9 -Nle^10 -NH2] (H-D[dP]H[dD]F[dW]V[dW]L[Nle]-NH2), in test [1], the ED50 is listed as 10.0(5.5-18.2) μg, the “Duration of Action” value is reported as not above 60 min and the “Onset of Action” value was 20 min. Further, the “% inhibition of SP-induced scratching” value in test [3] came to 50%.

For “[D-Pro^2,D-Trp^7,9 ]-Substance P(1-11) [[D-Pro^2,D-TrP^7,9]-SP(1-11), reference compound]”, the “% Inhibition of Bombesin” value in test [4] was 20%. Also, in test [1], the ED50 is 5.5(3.2-6.8) μg, the “Duration of Action” value is not above 15 min and the “Onset of Action” value amounted to 5 min. Further, the “ID50 vs. NK” value in test [2] is given as 2.6(0.8-4.8). Further, the “ID50 vs SP” value in test [3] was 4.6(2.9-6.9).
